According to patent US10596267B2, “Method and process for quantitative evaluation of pharmacokinetics, therapeutic effects and safety of delivery of drug compounds to the inner ear for treatment of auditory disease” (The Charles Stark Draper Laboratory, Inc., priority 2016, dated 2020):

System: guinea pig cochleae
Test: Reciprocating inner ear delivery of DNQX by micropump via cochleostomy; CAP and DPOAE hearing measurements
Details: pump infusion via cochleostomy at the basal turn
Description: Infusion began at t=0. A hearing threshold is the minimum sound pressure level (measured in dB SPL) required to generate a response. Data reported are threshold shifts, the change in threshold as compared to baseline. […] CAP amplitudes are also shown, with a legend that is on a log scale.
Reciprocating inner ear delivery and electronically-controlled dosing in a guinea pig model using a pump to infuse a drug via a cochleostomy (made at the basal turn) was evaluated. The drug reservoir was loaded with the glutamate receptor antagonist DNQX (which disrupts hair-cell-to-auditory-nerve synaptic transmission resulting in attenuation of compound action potentials (CAPs) generated in response to auditory stimuli). The molecular weight (232 Daltons) and physicochemical characteristics of DNQX make it a suitable model for evaluating the potential of other small molecule candidates for inner ear delivery. […] DPOAE responses from hair cells (which are not altered by DNQX) were monitored as a control for nonspecific effects.
In the experiments described herein, drug concentration was not measured directly, but was inferred by mapping the drug-mediated CAP inhibition along the length of the ST to calculate drug concentrations at a given location.

## O=[N+]([O-])c1cc2nc(O)c(O)nc2cc1[N+](=O)[O-] [DNQX]
  DPOAE over time (control for nonspecific effects, mechanical damage or conductive hearing loss): lack of alterations in DPOAE over time
tone-pip-evoked CAP
  compound action potential (CAP) after initiation of drug delivery: reduction in CAP
